Assay: mn = molality of the nth substance listed, in mol/kg
Settings: 100 kPa, Liquid; for mass density: Vibrating tube method; for electrical conductivity: Alternating current cell with electrodes; for viscosity: Falling or rolling sphere viscometry

CCC(=O)OCCN1CCNCC1 [2-(piperazin-1-yl)ethyl propionate] + CO
Settings | electrical conductivity, 303.15 K [S/m] | electrical conductivity, 308.15 K [S/m] | mass density, 298.15 K [kg/m3] | mass density, 303.15 K [kg/m3] | viscosity, 303.15 K [mPa·s] | viscosity, 308.15 K [mPa·s]
m1 = 0.05 | 0.136 | 0.139 | – | 785.03 | 0.542 | 0.512
m1 = 0.1001 | 0.224 | 0.232 | – | 788.13 | 0.556 | 0.523
m1 = 0.2006 | 0.362 | 0.374 | – | 794.26 | 0.589 | 0.554
m1 = 0.3003 | 0.465 | 0.482 | – | 800.33 | 0.627 | 0.588
m1 = 0.3995 | 0.547 | 0.566 | – | 806.4 | 0.668 | 0.625
m1 = 0.5005 | 0.615 | 0.641 | 817.14 | 812.5 | 0.713 | 0.665
m1 = 0.6006 | 0.672 | 0.701 | 823.36 | 818.75 | 0.764 | 0.711
m1 = 0.7007 | 0.715 | 0.748 | 829.58 | 824.99 | 0.816 | 0.758
m1 = 0.8007 | 0.756 | 0.792 | 835.68 | 831.13 | 0.881 | 0.817
m1 = 0.9008 | 0.785 | 0.824 | 841.84 | 837.3 | 0.95 | 0.879
m1 = 1.001 | 0.813 | 0.858 | 847.87 | 843.36 | 1.028 | –
m1 = 1.2 | 0.839 | 0.883 | 860.2 | 855.75 | 1.194 | –
m1 = 1.401 | 0.849 | 0.892 | 873.21 | 868.82 | 1.425 | –
m1 = 1.6 | 0.837 | 0.889 | 885.7 | 881.35 | 1.713 | –
m1 = 1.801 | 0.813 | 0.862 | 898.85 | 894.62 | 2.093 | –
m1 = 2 | 0.766 | 0.818 | 911.8 | 907.8 | 2.606 | –
m1 = 2.203 | 0.712 | 0.766 | 925.82 | 921.66 | 3.257 | –
m1 = 2.403 | 0.648 | 0.703 | 938.76 | 934.65 | 4.233 | –
m1 = 2.603 | 0.571 | 0.626 | 951.62 | 947.56 | 5.512 | –
m1 = 2.803 | 0.505 | 0.559 | 964.72 | 960.73 | 7.332 | –
m1 = 3.001 | – | – | 978.3 | 974.37 | 10.32 | –
m1 = 3.006 | 0.439 | 0.483 | – | – | – | –

— the NIST ThermoML archive (doi:10.1021/je500380x)
